The values that follow come from patent publication US5631244A, “mono(6-amino-6-deoxy)cyclodextrin derivatives substituted in the 6-position by an α-amino acid residue, process for their preparation and their uses” (L'Oreal, priority 1993, dated 1997).

Converted amounts (≈) assume the structure as drawn.

A short description of this data set: Solubility in water of the cyclodextrin derivatives. The data set is classed as physicochemical.
For orientation: solubility means the concentration that dissolves in the medium under given conditions. High values mean a readily soluble substance, low ones a poorly soluble substance. As to `NC(CCC(=O)NC[C@H]1O[C@@H]2O[C@H]3[C@H](O)[C@@H](O)[C@@H](O[C@H]4[C@H](O)[C@@H](O)[C@@H](O[C@H]5[C@H](O)[C@@H](O)[C@@H](O[C@H]6[C@H](O)[C@@H](O)[C@@H](O[C@H]7[C@H](O)[C@@H](O)[C@@H](O[C@H]8[C@H](O)[C@@H](O)[C@@H](O[C@H]1[C@H](O)[C@H]2O)O[C@@H]8CO)O[C@@H]7CO)O[C@@H]6CO)O[C@@H]5CO)O[C@@H]4CO)O[C@@H]3CO)C(=O)O` (stereo partly drawn) [Example 1(b), mono[N-(4-amino-4-carboxybutyryl)amino]-6-deoxy-β-cyclodextrin], the solubility was more than 1000 mg/mL.

`NC(CC(=O)NC[C@H]1O[C@@H]2O[C@H]3[C@H](O)[C@@H](O)[C@@H](O[C@H]4[C@H](O)[C@@H](O)[C@@H](O[C@H]5[C@H](O)[C@@H](O)[C@@H](O[C@H]6[C@H](O)[C@@H](O)[C@@H](O[C@H]7[C@H](O)[C@@H](O)[C@@H](O[C@H]8[C@H](O)[C@@H](O)[C@@H](O[C@H]1[C@H](O)[C@H]2O)O[C@@H]8CO)O[C@@H]7CO)O[C@@H]6CO)O[C@@H]5CO)O[C@@H]4CO)O[C@@H]3CO)C(=O)O` (stereo partly drawn) [Example 2(b), mono[N-(3-amino 3-carboxypropionyl)amino]-6-deoxy-β-cyclodextrin] came in with a solubility of more than 1000 mg/mL.

Consider `NC(Cc1ccc(OCC(=O)NC[C@H]2O[C@@H]3O[C@H]4[C@H](O)[C@@H](O)[C@@H](O[C@H]5[C@H](O)[C@@H](O)[C@@H](O[C@H]6[C@H](O)[C@@H](O)[C@@H](O[C@H]7[C@H](O)[C@@H](O)[C@@H](O[C@H]8[C@H](O)[C@@H](O)[C@@H](O[C@H]9[C@H](O)[C@@H](O)[C@@H](O[C@H]2[C@H](O)[C@H]3O)O[C@@H]9CO)O[C@@H]8CO)O[C@@H]7CO)O[C@@H]6CO)O[C@@H]5CO)O[C@@H]4CO)cc1)C(=O)O` (stereo partly drawn) [Example 3, mono [N-4-(2'-amino 2'-carboxy ethyl) 1-(phenyloxymethylcarbonyl)amino]6-deoxy β-cyclodextrin], for which the solubility is 900 mg/mL (≈ 664 mM).
